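Protocol summary: plate cells (96-well), add compound at 5 concentrations, incubate 48 h, interpolate endpoints linearly. TGI: total growth inhibition.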
How the values were obtained:
Test in all cases: NCI tumour cell line growth inhibition, 48 h
HT29 colon = tested on: HT29 colon
U251 CNS = tested on: U251 CNS
TK-10 renal = tested on: TK-10 renal
DU-145 prostate = tested on: DU-145 prostate
SNB-75 CNS = tested on: SNB-75 CNS
SW-620 colon = tested on: SW-620 colon
OVCAR-8 ovarian = tested on: OVCAR-8 ovarian
A549 NSCLC = tested on: A549 NSCLC
A498 renal = tested on: A498 renal
SK-MEL-5 melanoma = tested on: SK-MEL-5 melanoma
NCI-H522 lung = tested on: NCI-H522 lung

Row | SMILES | TGI (HT29 colon) [µM] | TGI (U251 CNS) [µM] | TGI (TK-10 renal) [µM] | TGI (DU-145 prostate) [µM] | TGI (SNB-75 CNS) [µM] | TGI (SW-620 colon) [µM] | TGI (OVCAR-8 ovarian) [µM] | TGI (A549 NSCLC) [µM] | TGI (A498 renal) [µM] | TGI (SK-MEL-5 melanoma) [µM] | TGI (NCI-H522 lung) [µM]
1 | CCOC(=O)Cc1nc2nn(Cc3ccccc3)cc2c(=O)[nH]1 | > 100 | > 100 | > 100 | > 100 | > 100 | > 100 | > 100 | > 100 | > 100 | > 100 | –
2 | Cc1nc2c(n1CCCl)C(=O)c1ccccc1C2=O | 44.7 | 62.4 | 78.5 | > 100 | > 100 | 88.9 | 42.6 | > 100 | – | – | 49.6
3 | O=C(O)c1ccccc1C(=O)OCC1CCCN2CCCCC12 (stereo not drawn) | > 100 | > 100 | > 100 | > 100 | > 100 | > 100 | > 100 | > 100 | > 100 | > 100 | –
4 | c1ccc2c(NCCCCCCCCNc3cccc4ccccc34)cccc2c1 | > 100 | > 100 | 43.6 | – | 83.2 | 40 | 54.8 | > 100 | > 100 | > 10 | 36
5 | Cc1ccc(-c2cnc(NC3OC(COC(=O)c4ccccc4)C(OC(=O)c4ccccc4)C(OC(=O)c4ccccc4)C3OC(=O)c3ccccc3)s2)cc1 (stereo not drawn) | > 100 | > 100 | > 100 | > 100 | > 100 | > 100 | > 100 | > 100 | – | > 100 | > 100
6 | Clc1cccc(Cl)c1C1SCc2nc3cc4ccccc4cc3n21 (stereo not drawn) | > 100 | > 100 | > 100 | > 100 | > 100 | > 100 | > 100 | > 100 | – | > 100 | –
7 | CC1=C(N(C)C)C(=O)c2nc3n(c2C1=O)CCC3OC(N)=O (stereo not drawn) | 35.6 | 49.9 | 32.3 | – | 42.5 | 33.6 | 34.3 | 35.1 | 26.6 | 23.7 | 28.8
8 | O=S(=O)([N-]c1nc2ccccc2nc1-[n+]1ccccc1)c1ccccc1 | > 100 | – | > 100 | – | > 100 | – | > 100 | > 100 | – | > 100 | > 100
9 | O=c1c2cc([N+](=O)[O-])cnc2sn1-c1ccc(Oc2ccccc2)cc1 | > 100 | > 100 | > 100 | > 100 | > 100 | > 100 | > 100 | > 100 | – | > 100 | 34.1
10 | CCC12CC[C@H](C#N)N3CCc4c(n(c5ccccc45)C(=O)C1)C32 (stereo partly drawn) | 31.3 | 29.8 | 46.8 | – | 27.6 | 51.7 | 57.5 | 61.3 | 35.1 | 27.2 | –
11 | N#CC(c1ccc(Cl)cc1)c1cccc(Cl)n1 (stereo not drawn) | > 100 | > 100 | > 100 | – | 84.3 | > 100 | > 100 | > 100 | > 100 | – | > 100
12 | CC(C)(C)c1cc(N=NC(=S)NCc2ccccc2)cc(C(C)(C)C)c1O | > 100 | > 100 | > 100 | – | 99.6 | > 100 | > 100 | > 100 | > 100 | > 100 | –
13 | CC(=O)CCC(=O)CC(O)(C(F)(F)F)C(F)(F)F | 34.7 | 33.2 | 44.1 | 37.8 | 65.2 | 42.8 | 37.9 | 41.9 | 17.6 | 33.2 | –
14 | CCOC(=O)C1=C(C)C2C3C(=O)NC(=O)C3C1(C)C1C(=O)NC(=O)C21 (stereo not drawn) | > 100 | > 100 | > 100 | – | > 100 | > 100 | > 100 | > 100 | > 100 | > 100 | –
15 | BrC12C3C4C5C(C(C43)C13OCCO3)C52 (stereo not drawn) | > 100 | > 100 | > 100 | – | > 100 | > 100 | > 100 | > 100 | > 100 | > 100 | > 100
16 | Clc1ccc2c(Cl)ncnc2c1I | > 100 | > 100 | > 100 | – | 75 | > 100 | > 100 | > 100 | – | > 100 | 56.6
17 | c1cc2[se][se]c3c4cccc5[se][se]c(c(c1)c23)c54 | > 100 | > 100 | > 100 | – | > 100 | > 100 | > 100 | > 100 | > 100 | > 100 | > 100
18 | O=C(CSc1nnc(-c2ccc(N=Cc3ccc(Cl)cc3)cc2)o1)Nc1ccccc1 | > 100 | > 100 | > 100 | – | > 100 | > 100 | > 100 | > 100 | – | > 100 | 35.5
19 | CC(=O)/C(=C/N1C(=O)CC(=O)NC1=S)C(=O)Nc1ccccc1C | 53.5 | > 100 | > 100 | > 100 | > 100 | 93.9 | > 100 | > 100 | > 100 | > 100 | –
20 | Cc1nc2c(s/c(=N\N)n2-c2ccccc2)c(=O)[nH]1 | > 100 | > 100 | > 100 | – | > 100 | > 100 | > 100 | > 100 | > 100 | > 100 | > 100
21 | CC[N+](CC)(CC)Cc1cn(S(=O)(=O)c2ccccc2)c2ccccc12 | > 100 | > 100 | > 100 | – | > 100 | > 100 | > 100 | > 100 | – | > 100 | > 100
22 | Cc1cc(Cl)ccc1NC(=O)/C(CC(=O)CC(c1ccccc1)c1c(O)c2ccccc2oc1=O)=N\O (stereo not drawn) | > 100 | > 100 | > 100 | > 100 | > 100 | > 100 | > 100 | > 100 | – | > 100 | > 100

Source: PubChem BioAssay (NCI)
